Values of other authors in patent US20070166273A1, “Skin treatment educational kit” (priority 2006, published 2007).

Tests used:
hamsters = settings: oral
rats [1] = settings: dermal
rats [2] = settings: oral
mice [3] = settings: 0.025 mg/kg/day topically to mice (0.1 times max human systemic dose)
mice [4] = settings: oral
[5] = dermally applied, 1.0 mg/kg/day (8 times max human systemic dose)
hairless albino mice = settings: concurrent exposure
rabbits = settings: 0.5 mg/kg/day (8 times max human systemic dose)
Wistar rats [6] = test system: Wistar rats
rats [7] = settings: oral, rats (16 times the human topical dose)
pigmented mice = settings: 0.05% tretinoin
[8] = test system: New Zealand White rabbits; settings: New Zealand White rabbits (3.3 times max human systemic dose)
subhuman primates = settings: oral
[9] = Ames assay
CD-1 mice = settings: 91-week dermal
mouse = settings: in vivo mouse micronucleus assay
rats [10] = settings: oral, 2.5 mg/kg/day (20 times max human systemic dose)
Wistar rats [11] = settings: orally or topically, Wistar rats (8 times max human systemic dose)

CC1=C(/C=C/C(C)=C/C=C/C(C)=C/C(=O)O)C(C)(C)CCC1 [tretinoin, all-trans-retinoic acid]
teratogenicity (hamsters): teratogenic | sperm count and motility (rats [1]; 0.5 mg/kg/day, rats (4 times max human systemic dose)): slight (not statistically significant) decreases | number and percent of nonviable embryos (rats [1]; females treated with 0.25 mg/kg/day and above (2 times max human systemic dose)): slight (not statistically significant) increases | teratogenicity (rats [2]): teratogenic | carcinogenic potential (mice [3]): no evidence of carcinogenic potential | reports describing holoprosencephaly (human; of the thirty human cases): five | human cases of temporally associated congenital malformations (human; two decades of clinical use): Thirty | teratogenicity (mice [4]): teratogenic | dose with fetal malformations (cynomolgus monkey; cynomolgus monkey): ≥ 10 mg/kg/day | embryolethality and abortion (cynomolgus monkey; cynomolgus monkey): dose-related increase | dose at which no fetal malformations were observed (cynomolgus monkey; cynomolgus monkey (83 times max human systemic dose)): 5 mg/kg/day | skeletal variations (cynomolgus monkey; cynomolgus monkey, all doses): increased skeletal variations were observed at all doses | fetotoxicity and teratogenicity [5]: may be fetotoxic, but not overly teratogenic | tumorigenic potential of carcinogenic doses of UVB and UVA light (hairless albino mice): may enhance the tumorigenic potential | fetotoxicity and teratogenicity (rabbits; dermally applied): may be fetotoxic, but not overly teratogenic | fetotoxicity (rabbits; topical): fetotoxic | anomalies: humerus bent (Wistar rats [6]; 10 mg/kg/day topically applied): 6% | anomalies: humerus short (Wistar rats [6]; 10 mg/kg/day topically applied): 13% | anomalies: os parietal incompletely ossified (Wistar rats [6]; 10 mg/kg/day topically applied): 14% | dose with evidence for teratogenicity (shortened or kinked tail) (Wistar rats [6]; topical, Wistar rats (8 times max human systemic dose)): greater than 1 mg/kg/day | dose with decreased survival of neonates and growth retardation (rats [7]): > 2 mg/kg/day | enhancement of photocarcinogenesis (pigmented mice): dark pigmentation did not overcome the enhancement of photocarcinogenesis | dose with increased incidence of domed head and hydrocephaly [8]: greater than 0.2 mg/kg/day | teratogenicity (subhuman primates): teratogenic | mutagenic potential [9]: negative | cutaneous squamous cell carcinomas and papillomas in the treatment area (CD-1 mice; 0.017% and 0.035% formulations (max systemic 0.5 and 1.0 mg/kg/day), female CD-1 mice): observed in some female mice | liver tumors (CD-1 mice; 0.017% and 0.035% formulations, male CD-1 mice): dose-related incidence | mutagenic potential (mouse): negative | fetotoxicity (rats [10]): fetotoxic, resulting in skeletal variations and increased intrauterine death | teratogenic and fetotoxic dose (Wistar rats [11]): greater than 1 mg/kg/day
